This note sets out measurements from PubChem BioAssay AID256 (DTP/NCI, 2004).

The test system of the assay is CD2F1 mice, L1210 leukemia ip, survival T/C. The assay can be described thus: NCI In Vivo Anticancer Drug Screen. Data for tumor model L1210 Leukemia (intraperitoneal) in CD2F1 (CDF1) mice. The settings on record: higher = longer survival. Put shortly: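 Antitumor effect is scored in animals hosting a serially transplanted tumor. Values compare compound-dosed animals against vehicle-only controls as a simple quotient.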

[1] abbreviates: endpoint: mean survival time, dose: 100.0 mg/kg/injection, schedule: Q01DX001 (ip), vehicle: saline.
[2] abbreviates: endpoint: mean survival time, dose: 200.0 mg/kg/injection, schedule: Q01DX001 (ip), vehicle: saline.
Where [3] appears, read: endpoint: mean survival time, dose: 12.5 mg/kg/injection, schedule: Q01DX009 (ip), vehicle: saline with Tween-80.
Setting [4] is: endpoint: mean survival time, dose: 25.0 mg/kg/injection, schedule: Q01DX009 (ip), vehicle: saline with Tween-80.
[5] abbreviates: endpoint: mean survival time, dose: 50.0 mg/kg/injection, schedule: Q01DX009 (ip), vehicle: saline with Tween-80.
The mark [6] stands for this setting: endpoint: mean survival time, dose: 50.0 mg/kg/injection, schedule: Q04DX002 (ip), vehicle: saline with Tween-80.
[7] abbreviates: endpoint: mean survival time, dose: 100.0 mg/kg/injection, schedule: Q04DX002 (ip), vehicle: saline with Tween-80.
Where [8] appears, read: endpoint: mean survival time, dose: 200.0 mg/kg/injection, schedule: Q04DX002 (ip), vehicle: saline with Tween-80.
[9] abbreviates: endpoint: mean survival time, dose: 400.0 mg/kg/injection, schedule: Q04DX002 (ip), vehicle: saline with Tween-80.
Where [10] appears, read: endpoint: mean survival time, dose: 100.0 mg/kg/injection, schedule: Q04DX003 (ip), vehicle: saline with Tween-80.
[11] abbreviates: endpoint: mean survival time, dose: 200.0 mg/kg/injection, schedule: Q04DX003 (ip), vehicle: saline with Tween-80.
Setting [12] is: endpoint: mean survival time, dose: 400.0 mg/kg/injection, schedule: Q04DX003 (ip), vehicle: saline with Tween-80.
Setting [13] is: endpoint: mean survival time, dose: 50.0 mg/kg/injection, schedule: Q04DX003 (ip), vehicle: other.
[14] abbreviates: endpoint: mean survival time, dose: 100.0 mg/kg/injection, schedule: Q04DX003 (ip), vehicle: other.
Setting [15] is: endpoint: mean survival time, dose: 200.0 mg/kg/injection, schedule: Q04DX003 (ip), vehicle: other.

Values joined by “and” are separate entries in the source; they are usually repeats but may differ in a detail not shown here. Equal values may be shown once. Inconclusive results and toxic doses are left out.

Regarding `COc1ccc(CCNC2c3ccccc3C=Cc3ccccc32)cc1OC`, the T/C (endpoint: mean survival time, dose: 50.0 mg/kg/injection, schedule: Q01DX001 (ip), vehicle: saline with Tween-80) is 107 % of control; the T/C under setting [1] was 91 % of control; the T/C under setting [2] was 100 % of control.

As to `[I][Pt+2][I].[NH-]c1ccc(S(=O)(=O)Nc2ccccn2)cc1.[NH-]c1ccc(S(=O)(=O)Nc2ccccn2)cc1`, the T/C (endpoint: mean survival time, dose: 20.31 mg/kg/injection, schedule: Q04DX003 (ip), vehicle: saline with Tween-80) was 105 % of control; the T/C (endpoint: mean survival time, dose: 40.63 mg/kg/injection, schedule: Q04DX003 (ip), vehicle: saline with Tween-80) is 105 % of control; the T/C (endpoint: mean survival time, dose: 81.25 mg/kg/injection, schedule: Q04DX003 (ip), vehicle: saline with Tween-80) was 90 % of control; the T/C (endpoint: mean survival time, dose: 162.5 mg/kg/injection, schedule: Q04DX003 (ip), vehicle: saline with Tween-80) is 94 % of control; the T/C (endpoint: mean survival time, dose: 325.0 mg/kg/injection, schedule: Q04DX003 (ip), vehicle: saline with Tween-80) is 102 % of control.

As for `CC1(C)N=C(N)N=C(N)N1c1ccc(OCCCCNC(=O)c2ccc(S(=O)(=O)F)cc2)c(Cl)c1`, the T/C runs as follows: under setting [3], 110 % of control; under setting [4], 110 % of control; under setting [5], 119 % of control and 109 % of control; under setting [6], 104 % of control; under setting [7], 104 % of control; under setting [8], 104 % of control.

For the compound `O=[N+]([O-])c1cccc(C[n+]2ccccc2C2OCCO2)c1`, the T/C by setting is: (endpoint: mean survival time, dose: 6.25 mg/kg/injection, schedule: Q01DX009 (ip), vehicle: saline) 101 % of control; (endpoint: mean survival time, dose: 12.5 mg/kg/injection, schedule: Q01DX009 (ip), vehicle: saline) 101 % of control; (endpoint: mean survival time, dose: 12.5 mg/kg/injection, schedule: Q04DX003 (ip), vehicle: saline) 104 % of control; (endpoint: mean survival time, dose: 25.0 mg/kg/injection, schedule: Q01DX009 (ip), vehicle: saline) 96 % of control; (endpoint: mean survival time, dose: 25.0 mg/kg/injection, schedule: Q04DX003 (ip), vehicle: saline) 114 % of control.

As to `N#Cc1ccc(NC=O)cc1`, the T/C was 98 % of control (endpoint: mean survival time, dose: 100.0 mg/kg/injection, schedule: Q04DX003 (ip), vehicle: Klucel (hydroxypropylcellulose) (HPC)); 98 % of control (endpoint: mean survival time, dose: 200.0 mg/kg/injection, schedule: Q04DX003 (ip), vehicle: Klucel (hydroxypropylcellulose) (HPC)); 102 % of control (endpoint: mean survival time, dose: 400.0 mg/kg/injection, schedule: Q04DX003 (ip), vehicle: Klucel (hydroxypropylcellulose) (HPC)).

As to `O=c1[nH]c(=S)n2ncnc2[nH]1`, the T/C is, setting by setting: (endpoint: mean survival time, dose: 100.0 mg/kg/injection, schedule: Q01DX009 (ip), vehicle: acetone) 97 % of control; (endpoint: mean survival time, dose: 200.0 mg/kg/injection, schedule: Q01DX009 (ip), vehicle: acetone) 103 % of control; (endpoint: mean survival time, dose: 400.0 mg/kg/injection, schedule: Q01DX009 (ip), vehicle: acetone) 95 % of control.

As to `CC(=O)O[C@H]1CC[C@@]2(C)[C@@H](CC[C@@H]3[C@@H]2CC(=O)[C@]2(C)[C@@H]4[C@H](C[C@@H]32)O[C@]2(CC[C@@H](C)CO2)[C@H]4C)C1`, the T/C was 96 % of control under setting [1]; 101 % of control under setting [2]; 98 % of control (endpoint: mean survival time, dose: 400.0 mg/kg/injection, schedule: Q01DX001 (ip), vehicle: saline).

Consider `CCCOC(=O)Nc1ccccn1`, for which the T/C reads like this: under setting [7], 108 % of control; under setting [8], 108 % of control; under setting [9], 97 % of control.

As to `Cc1cc2c(-c3ccccc3)c(-c3ccccc3)oc(=O)c2cc1C`, the T/C is, setting by setting: under setting [10], 95 % of control; under setting [11], 90 % of control; under setting [12], 92 % of control.

`CC1CCCN(CCSSCCN2CCCC(C)C2)C1` (stereo unspecified): the T/C reads like this: under setting [3], 104 % of control; (endpoint: mean survival time, dose: 12.5 mg/kg/injection, schedule: Q04DX003 (ip), vehicle: saline sonified) 97 % of control; under setting [4], 96 % of control; (endpoint: mean survival time, dose: 25.0 mg/kg/injection, schedule: Q04DX003 (ip), vehicle: saline sonified) 98 % of control; under setting [5], 95 % of control; (endpoint: mean survival time, dose: 50.0 mg/kg/injection, schedule: Q04DX003 (ip), vehicle: saline sonified) 103 % of control.

As to `C/C=C1/C[C@@H](C)[C@@](C)(O)C(=O)OCC2=CC[N+]3([O-])CC[C@@H](OC1=O)[C@@H]23` (stereo partly specified), the T/C was 103 % of control (endpoint: mean survival time, dose: 100.0 mg/kg/injection, schedule: Q01DX001 (ip), vehicle: saline with Tween-80) and 97 % of control (endpoint: mean survival time, dose: 200.0 mg/kg/injection, schedule: Q01DX001 (ip), vehicle: saline with Tween-80).

On to `CCC(=O)c1cc(OC)cc(OC)c1`, for which the T/C by setting is: (endpoint: mean survival time, dose: 100.0 mg/kg/injection, schedule: Q04DX003 (ip), vehicle: saline) 100 % of control; (endpoint: mean survival time, dose: 200.0 mg/kg/injection, schedule: Q04DX003 (ip), vehicle: saline) 101 % of control; (endpoint: mean survival time, dose: 400.0 mg/kg/injection, schedule: Q04DX003 (ip), vehicle: saline) 103 % of control.

As to `CC(=O)Oc1ccc(C(=O)O)cc1`, the T/C is, setting by setting: (endpoint: mean survival time, dose: 50.0 mg/kg/injection, schedule: Q01DX009 (ip), vehicle: Klucel (hydroxypropylcellulose) (HPC)) 91 % of control; (endpoint: mean survival time, dose: 100.0 mg/kg/injection, schedule: Q01DX009 (ip), vehicle: Klucel (hydroxypropylcellulose) (HPC)) 98 % of control.

Take `O=NN1Cc2ccccc2C1=O`: the T/C is, setting by setting: (endpoint: mean survival time, dose: 100.0 mg/kg/injection, schedule: Q01DX009 (ip), vehicle: saline with Tween-80) 96 % of control; (endpoint: mean survival time, dose: 200.0 mg/kg/injection, schedule: Q01DX009 (ip), vehicle: saline with Tween-80) 94 % of control; (endpoint: mean survival time, dose: 400.0 mg/kg/injection, schedule: Q01DX009 (ip), vehicle: saline with Tween-80) 94 % of control.

With `O=C(O)C(O)C(O)C(O)C(O)C(=O)O.[NH-]C1CCCCC1[NH-].[Pt+2]` (stereo unspecified), the T/C by setting is: (endpoint: median survival time, dose: 6.25 mg/kg/injection, schedule: Q04DX003 (ip), vehicle: saline) 116 % of control and 112 % of control; (endpoint: median survival time, dose: 12.5 mg/kg/injection, schedule: Q04DX003 (ip), vehicle: saline) 121 % of control and 123 % of control; (endpoint: median survival time, dose: 25.0 mg/kg/injection, schedule: Q04DX003 (ip), vehicle: saline) 123 % of control; (endpoint: median survival time, dose: 50.0 mg/kg/injection, schedule: Q04DX003 (ip), vehicle: saline) 151 % of control and 152 % of control; (endpoint: median survival time, dose: 100.0 mg/kg/injection, schedule: Q04DX003 (ip), vehicle: saline) 167 % of control and 187 % of control.

`C[N+](C)(C)/N=C/c1ccc(Cl)cc1`: under setting [6], the T/C is 93 % of control.

As for `CC(C)C1C=CC(C)(/C=C/N2CCCC2)CC1` (stereo unspecified), the T/C is, setting by setting: (endpoint: mean survival time, dose: 75.0 mg/kg/injection, schedule: Q01DX001 (ip), vehicle: other) 98 % of control; (endpoint: mean survival time, dose: 150.0 mg/kg/injection, schedule: Q01DX001 (ip), vehicle: other) 98 % of control; (endpoint: mean survival time, dose: 300.0 mg/kg/injection, schedule: Q01DX001 (ip), vehicle: other) 102 % of control.

Turning to `O=C(C(F)(F)F)C(F)(F)F` (tested in a mixture with another compound), the T/C runs as follows: (endpoint: mean survival time, dose: 25.0 mg/kg/injection, schedule: Q04DX003 (ip), vehicle: other) 100 % of control; under setting [13], 95 % of control; under setting [14], 94 % of control; under setting [15], 92 % of control.

Take `OCCSc1c(Cl)c(Cl)c(Cl)c(Cl)c1Cl`: the T/C runs as follows: (endpoint: mean survival time, dose: 25.0 mg/kg/injection, schedule: Q04DX002 (ip), vehicle: saline with Tween-80) 98 % of control; under setting [6], 95 % of control; under setting [7], 115 % of control; under setting [9], 90 % of control.

Consider `Cc1ccc(CC(=O)O)cc1C`, for which the T/C was 98 % of control under setting [10], 95 % of control under setting [11] and 98 % of control under setting [12].

For the compound `S=C(SN1CCCCC1)N1CCCCC1`, the T/C under setting [13] is 96 % of control, the T/C under setting [14] is 96 % of control and the T/C under setting [15] is 91 % of control.

For the compound `OCC1C=CCC=C1`, the T/C (endpoint: mean survival time, dose: 100.0 mg/kg/injection, schedule: Q01DX009 (ip), vehicle: saline) was 95 % of control; the T/C (endpoint: mean survival time, dose: 200.0 mg/kg/injection, schedule: Q01DX009 (ip), vehicle: saline) is 107 % of control; the T/C (endpoint: mean survival time, dose: 400.0 mg/kg/injection, schedule: Q01DX009 (ip), vehicle: saline) was 101 % of control.
